In brackets after ≈: the same amount, converted by molar mass.

The conditions of this data set: buffer; pH 7.4; 200.0 µM.
Take `Cc1ccc(-c2ccc(C(=O)NCCCNC(=O)c3cnccn3)o2)cc1Cl`: the solubility (kinetic) – broadly, solubility judged after dilution from a stock solution rather than from solid – is 6.3 µg/mL (≈ 15.8 µM).

`Cc1occc1-c1nnc(SCC(=O)NC2CC2)n1C`: the solubility (kinetic) is over 43.9 µg/mL.

In turn, `COc1ccc(C(=O)CCC(=O)Nc2cccnc2)cc1` had a solubility (kinetic) of over 42.6 µg/mL.

On to `Cn1c(N)c(C(=O)COC(=O)/C=C/c2ccccc2F)c(=O)n(C)c1=O`, for which the solubility (kinetic) worked out at 5.5 µg/mL (≈ 15.2 µM).

`CC1(C)CC(NS(=O)(=O)c2ccc(F)cc2)CC(C)(C)N1` yielded a solubility (kinetic) of 47.1 µg/mL (≈ 150 µM).

The compound `Cc1ccc(C(C)NC(=O)C2CCCC2)cc1C` (stereo not drawn) yielded a solubility (kinetic) of 31.4 µg/mL (≈ 128 µM).

With `CCc1nc2ccc(C(=O)NCc3ccccc3)cc2nc1CC`, the solubility (kinetic) was determined as 3.6 µg/mL (≈ 11.3 µM).

On to `COC(=O)c1ccc(N2CCCCC2)c(N)c1`, for which the solubility (kinetic) is over 35.1 µg/mL.

As for `CC(=O)Nc1ccc(S(=O)(=O)NCCC(=O)N2CCN(c3ccccc3Cl)CC2)cc1`, the kinetic solubility was over 69.7 µg/mL.

With `O=C(NCc1cccnc1)C(=O)Nc1nc(-c2ccccc2)cs1`, the solubility (kinetic) was determined as 4.8 µg/mL (≈ 14.2 µM).

Take `COC(=O)c1ccc(COc2ccc(C#N)cc2)o1`: the kinetic solubility amounted to 7 µg/mL (≈ 27.2 µM).

On to `Cc1ccc(N2C(=O)Nc3ccccc3S2(=O)=O)cc1Cl`, for which the kinetic solubility was determined as 0.8 µg/mL (≈ 2.48 µM).

In the case of `COc1ccc(C(=O)OCC(=O)NCc2ccc3c(c2)OCO3)cc1S(=O)(=O)N1CCOCC1`, the kinetic solubility came to 12.2 µg/mL (≈ 24.8 µM).

`O=[N+]([O-])c1ccc(SCCO)nc1SCCO` returned a kinetic solubility of over 41.4 µg/mL.

In the case of `C=CCN1CCN(c2ccncc2S(=O)(=O)N2CCCCC2)CC1`, the solubility (kinetic) was over 52.6 µg/mL.

As to `Cc1ccc(NC(=O)c2ccccc2NC(=O)c2cccs2)cc1`, the kinetic solubility is under 0.4 µg/mL.

With `CCOC(=O)CCn1c(=S)n(CCC(=O)OCC)c2ccccc21`, the solubility (kinetic) turned out to be 49.5 µg/mL (≈ 141 µM).

In turn, `O=C1NC(=O)C(=Cc2ccc(-c3ccccc3[N+](=O)[O-])o2)C(=O)N1` had a kinetic solubility of 44.2 µg/mL (≈ 135 µM).

Turning to `CCN1C(=O)Nc2cccc3cccc1c23`, the kinetic solubility came to 4.9 µg/mL (≈ 23.1 µM).

`NS(=O)(=O)c1ccc(NC(=O)c2ccc3nccnc3c2)cc1` had a solubility (kinetic) of 7.5 µg/mL (≈ 22.8 µM).

Take `CCOC(=O)c1sc(NC(=O)CCN2C(=O)C3CCCCC3C2=O)cc1C` (stereo not drawn): the solubility (kinetic) amounted to 15 µg/mL (≈ 38.2 µM).

`CCc1ccc(NS(=O)(=O)c2c(C)noc2C)cc1`: the kinetic solubility is over 42.1 µg/mL.

Regarding `Cc1cc(Br)cc2c1NC(=O)C2(O)CC(=O)c1ccco1` (stereo not drawn), the kinetic solubility was found to be 47.7 µg/mL (≈ 136 µM).

Take `CC(=O)c1nc(-c2ccccc2)sc1C`: the solubility (kinetic) stood at 12.7 µg/mL (≈ 58.4 µM).

Turning to `CCN(Cc1ccncc1)C(=O)c1ccc2c(c1)S(=O)(=O)c1ccccc1C2=O`, the solubility (kinetic) came out at 42 µg/mL (≈ 103 µM).

Take `COc1cccc(NC(=O)c2c([N+](=O)[O-])cnn2C)c1`: the kinetic solubility was over 41.4 µg/mL.

Take `CCC(=O)c1ccc(OCC(=O)OCC(=O)N(CCC#N)c2ccc3c(c2)OCCO3)cc1`: the solubility (kinetic) was found to be 47.5 µg/mL (≈ 105 µM).

Regarding `O=c1[nH]c(/C=C\c2cccc(F)c2)nc(O)c1[N+](=O)[O-]`, the kinetic solubility is over 41.6 µg/mL.

`COc1ccc(CNC(=O)C(C)OC(=O)c2cccc(N(C)C)c2)cc1` (stereo not drawn) yielded a solubility (kinetic) of 37.8 µg/mL (≈ 106 µM).

`Cc1ccnc(N2C(=O)c3ccc([N+](=O)[O-])cc3C2=O)c1` gave a solubility (kinetic) of over 42.5 µg/mL.

`COc1cccc(-c2nc(CCl)cs2)c1.Cl` gave a solubility (kinetic) of 22.4 µg/mL.

For the compound `CCCCC(=O)Nc1cnc(NC(=O)c2ccco2)cc1C`, the kinetic solubility is over 45.2 µg/mL.

The compound `Cc1noc(C)c1S(=O)(=O)N1CCC(C(N)=O)CC1` had a solubility (kinetic) of over 43.1 µg/mL.

As for `O=C(Nc1ccc(Cl)c([N+](=O)[O-])c1)c1ccco1`, the solubility (kinetic) came out at 10.6 µg/mL (≈ 39.8 µM).

Take `O/N=C\c1cccn1-c1nccs1`: the solubility (kinetic) is over 29 µg/mL.

`O=C(c1c(F)cccc1Cl)N1CCN(c2ccccn2)CC1` had a solubility (kinetic) of over 48 µg/mL.

With `C=Cc1ccc(Cn2c(=O)n(C)c(=O)c3sccc32)cc1`, the kinetic solubility was 1 µg/mL (≈ 3.35 µM).

On to `CCCCOc1ccc(CN=C(N)N)cc1Cl`, for which the solubility (kinetic) is over 38.4 µg/mL.

In turn, `Cc1cc(C)c(NC(=O)CN2CCCCCC2)c(C)c1` yielded a kinetic solubility of over 41.2 µg/mL.

For `COc1ccc(-c2csc(-c3ccc(O)cc3)n2)cc1`, the solubility (kinetic) was under 0.6 µg/mL.

In turn, `CC1Cc2ccccc2N1CC(=O)NC(=O)NC(C)(C)C` (stereo not drawn) displayed a kinetic solubility of 30.7 µg/mL (≈ 106 µM).

`Cc1cnc(NC(=O)c2c(-c3ccccc3)noc2C)s1` gave a kinetic solubility of 39.8 µg/mL (≈ 133 µM).

`O=C(CSC1=NCCS1)c1ccc(Cl)cc1` displayed a kinetic solubility of 31.2 µg/mL (≈ 115 µM).

Compound `COc1ccccc1NCCC(=O)OCC(=O)Nc1ccccc1Cl` returned a solubility (kinetic) of over 54.4 µg/mL.

Compound `CCOc1ccccc1NC(=O)CCCNC(=O)c1ccc(Cl)cc1` gave a solubility (kinetic) of 50.4 µg/mL (≈ 140 µM).

As for `COc1ccc(OC)c(C2=NOC(C(=O)Nc3cc(C)on3)C2)c1` (stereo not drawn), the kinetic solubility was determined as 44.1 µg/mL (≈ 133 µM).

`CCOc1ccc(C2C([N+](=O)[O-])=C(C)N(C)C(=O)N2C)cc1OC` (stereo not drawn) returned a kinetic solubility of over 50.3 µg/mL.

`O=C(NCc1ccc2c(c1)OCO2)C1CCCCC1` registered a solubility (kinetic) of over 39.2 µg/mL.

In turn, `S=C1NCN(Cc2cccnc2)CN1c1cccc2ccccc12` came in with a solubility (kinetic) of over 50.2 µg/mL.

Take `CC1=C(C(=O)OCCOC(C)C)C(c2cccc3ccccc23)NC(=O)N1` (stereo not drawn): the solubility (kinetic) turned out to be 4.6 µg/mL (≈ 12.5 µM).

`O=C(c1ccc(F)cc1F)C1CCN(c2ccc([N+](=O)[O-])cn2)CC1` showed a solubility (kinetic) of 1.4 µg/mL (≈ 4.03 µM).

`O=C(CNC(=O)c1ccc(F)cc1)c1ccccc1` registered a kinetic solubility of over 38.6 µg/mL.

The compound `Cn1c(=O)c2c(nc(Oc3cccc(O)c3)n2C)n(C)c1=O` showed a solubility (kinetic) of over 45.3 µg/mL.

`COCCNC(=O)CN1C(=O)NC2(CCOc3ccccc32)C1=O` (stereo not drawn) had a kinetic solubility of 42.9 µg/mL (≈ 129 µM).

For the compound `CC(C)[C@@H](N)C(=O)N/N=C/c1ccc2nccnc2c1.Cl`, the solubility (kinetic) is over 46.2 µg/mL.

In turn, `O=C(Nc1cccc(Cl)c1)c1cc(F)cc2c1OCOC2` returned a solubility (kinetic) of under 0.7 µg/mL.

`Cc1noc(C)c1C(=O)Nc1ccccc1N1CCCC1` showed a kinetic solubility of 37.6 µg/mL (≈ 132 µM).

Take `O=C1CN(C(=O)CNCc2ccccc2)c2ccccc2N1`: the solubility (kinetic) amounted to 33.9 µg/mL (≈ 115 µM).

For the compound `CC(C)C(=O)NC(=S)Nc1ccc(S(=O)(=O)NC2CCCCC2)cc1`, the kinetic solubility amounted to 1 µg/mL (≈ 2.61 µM).

`Cc1ccccc1-n1c(=O)n(Cc2ccco2)c(=O)c2[nH]cnc21` had a solubility (kinetic) of over 48.3 µg/mL.

`CC1CCN(C(=O)CNC(=O)Cc2ccccc2)CC1` had a kinetic solubility of 40.9 µg/mL (≈ 149 µM).

In the case of `COCCN(Cc1ccc(F)cc1)C(=O)c1cc2ccccc2oc1=O`, the kinetic solubility was over 53.3 µg/mL.

The compound `N#C/C(=C\c1cccs1)C(=O)Nc1ccccn1` came in with a kinetic solubility of 12.8 µg/mL (≈ 50.1 µM).

Compound `O=C(O)c1cc(S(=O)(=O)N2CCCCC2)ccc1Cl` came in with a kinetic solubility of over 45.6 µg/mL.

`COC(=O)c1ccc(C2Nc3cccc4cccc(c34)N2)cc1` showed a kinetic solubility of 3.5 µg/mL (≈ 11.5 µM).

`CC(C)N(C(=O)COC(=O)c1ccc([N+](=O)[O-])cc1)c1ccccc1` registered a solubility (kinetic) of 1.1 µg/mL (≈ 3.21 µM).

The compound `Cc1ccc(NC(=O)Cn2cc([N+](=O)[O-])nc2C)cc1C` came in with a solubility (kinetic) of 14.8 µg/mL (≈ 51.3 µM).

In the case of `CC(C)c1ccc(C(=O)CN2C(=O)NC3(CCc4ccccc43)C2=O)cc1` (stereo not drawn), the kinetic solubility was 7.1 µg/mL (≈ 19.6 µM).

With `O=C(COC(=O)/C=C/c1ccccc1Cl)NC(=O)NC1CCCC1`, the kinetic solubility is 8.2 µg/mL (≈ 23.4 µM).

In turn, `CCN(Cc1cc2ccccc2[nH]c1=O)C(=O)c1cccc([N+](=O)[O-])c1` showed a solubility (kinetic) of 39.3 µg/mL (≈ 112 µM).

On to `Cc1ccc(C)c(NC(=O)CSc2nccn2Cc2ccco2)c1`, for which the kinetic solubility was over 51.2 µg/mL.

On to `COc1cccc(/C=N/NC(=O)c2ccc3nc[nH]c3c2)c1`, for which the solubility (kinetic) was over 44.1 µg/mL.

`O=C1CSc2ccc(C(=O)O)cc2N1` had a kinetic solubility of over 31.4 µg/mL.

Source of the values: PubChem BioAssay AID1996.
